For assay [1], the target named is H7 HA (recombinant) (Influenza A virus (A/Netherlands/219/2003(H7N7)), UniProt Q6VMK1).
Assay [2] has the same target. This is another data set of the same source.
Assay [3] addresses H3 HA (recombinant) (Influenza A virus (A/Brisbane/10/2007(H3N2)), UniProt A8W8K8).

The values below come from publication PMC3806803 (PLoS ONE, 2013).

For the compound `CC(C)(C)c1cc(O)ccc1O` [TBHQ], the “WaterLOGSY and STD NMR; competition with antibody F49” value is “TBHQ binds to H7 HA and, based on the competition NMR experiment” in assay [1] and “NMR experiment clearly indicates that TBHQ binds to H3 HA” in assay [3]. Further, in assay [2], the “midpoint pH of proteolysis susceptibility with TBHQ” value is given as ~ 4.6 pH.
